Assay results as given in PubChem BioAssay (NCI).
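Protocol summary: plate cells (96-well), add compound at 5 concentrations, incubate 48 h, interpolate endpoints linearly. GI50: concentration for 50% inhibition of growth. TGI denotes the concentration required for complete inhibition of growth.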

Assays:
Assay in all cases: growth of human tumour cells (NCI), 48 h
[1] = test system: 786-0 renal
[2] = test system: A549 NSCLC
[3] = test system: BT-549 breast
[4] = test system: CAKI-1 renal
[5] = test system: CCRF-CEM leukemia
[6] = test system: COLO 205 colon
[7] = test system: DU-145 prostate
[8] = test system: EKVX NSCLC
[9] = test system: HCC-2998 colon
[10] = test system: HCT-116 colon
[11] = test system: HCT-15 colon
[12] = test system: HL-60(TB) leukemia
[13] = test system: HOP-62 NSCLC
[14] = test system: HOP-92 NSCLC
[15] = test system: HS 578T breast
[16] = test system: HT29 colon
[17] = test system: IGROV1 ovarian
[18] = test system: K-562 leukemia
[19] = test system: KM12 colon
[20] = test system: MALME-3M melanoma
[21] = test system: MCF7 breast
[22] = test system: MDA-MB-231 breast
[23] = test system: MDA-MB-435
[24] = test system: MOLT-4 leukemia
[25] = test system: NCI-H23 lung
[26] = test system: NCI-H522 lung
[27] = test system: OVCAR-4 ovarian
[28] = test system: OVCAR-8 ovarian
[29] = test system: PC-3 prostate
[30] = test system: RPMI-8226 leukemia
[31] = test system: RXF 393 renal
[32] = test system: SF-268 CNS
[33] = test system: SF-295 CNS
[34] = test system: SK-MEL-28 melanoma
[35] = test system: SK-MEL-5 melanoma
[36] = test system: SK-OV-3 ovarian
[37] = test system: SN12C renal
[38] = test system: SNB-19 CNS
[39] = test system: SNB-75 CNS
[40] = test system: SR leukemia
[41] = test system: SW-620 colon
[42] = test system: T-47D breast
[43] = test system: U251 CNS
[44] = test system: UACC-257 melanoma

Compound `Oc1ccc(CSc2nnc(-c3ccc(Cl)cc3)o2)c2cccnc12` has a GI50 [1] of 3220 nM, a TGI [1] greater than 100000 nM and a GI50 [2] of 2780 nM. The TGI [2] was greater than 100000 nM, the GI50 [3] was 2470 nM and the TGI [3] was greater than 100000 nM. For the same compound, the GI50 [4] was 2910 nM, the TGI [4] was greater than 100000 nM and the GI50 [5] was 1000 nM. For the same compound, the TGI [5] was greater than 100000 nM, the GI50 [6] was greater than 100000 nM and the TGI [6] was greater than 100000 nM. It also gave a GI50 [7] of 3670 nM, a TGI [7] greater than 100000 nM and a GI50 [8] of 2760 nM. The TGI [8] was greater than 100000 nM, the GI50 [9] was 2290 nM and the TGI [9] was greater than 100000 nM. For the same compound, the GI50 [10] was 1760 nM, the TGI [10] was greater than 100000 nM and the GI50 [11] was 698 nM. For the same compound, the TGI [11] was greater than 100000 nM, the GI50 [12] was 1910 nM and the TGI [12] was 9570 nM. For the same compound, the GI50 [13] was 2920 nM, the TGI [13] was greater than 100000 nM and the GI50 [14] was 1140 nM. For the same compound, the TGI [14] was 6720 nM, the GI50 [15] was 1620 nM and the TGI [15] was 64700 nM. The GI50 [16] was greater than 100000 nM, the TGI [16] was greater than 100000 nM and the GI50 [17] was 2800 nM. For the same compound, the TGI [17] was greater than 100000 nM, the GI50 [18] was 2170 nM and the TGI [18] was greater than 100000 nM. For the same compound, the GI50 [19] was 1960 nM, the TGI [19] was greater than 100000 nM and the GI50 [20] was 2870 nM. It also gave a TGI [20] greater than 100000 nM, a GI50 [21] of 2660 nM and a TGI [21] greater than 100000 nM. The GI50 [22] was 3180 nM, the TGI [22] was greater than 100000 nM and the GI50 [23] was 2960 nM. For the same compound, the TGI [23] was greater than 100000 nM, the GI50 [24] was 2370 nM and the TGI [24] was greater than 100000 nM. It also gave a GI50 [25] of 2420 nM, a TGI [25] greater than 100000 nM and a GI50 [26] of 2920 nM. It also gave a TGI [26] greater than 100000 nM, a GI50 [27] of 3070 nM and a TGI [27] greater than 100000 nM. It also gave a GI50 [28] of 2320 nM, a TGI [28] greater than 100000 nM and a GI50 [29] of 1490 nM. The TGI [29] was greater than 100000 nM, the GI50 [30] was 1220 nM and the TGI [30] was greater than 100000 nM. It also gave a GI50 [31] of 2370 nM, a TGI [31] greater than 100000 nM and a GI50 [32] of 1560 nM. The TGI [32] was greater than 100000 nM, the GI50 [33] was 2340 nM and the TGI [33] was greater than 100000 nM. For the same compound, the GI50 [34] was 2380 nM, the TGI [34] was greater than 100000 nM and the GI50 [35] was 1890 nM. The TGI [35] was 5160 nM, the GI50 [36] was 3150 nM and the TGI [36] was greater than 100000 nM. It also gave a GI50 [37] of 2540 nM, a TGI [37] greater than 100000 nM and a GI50 [38] of 1520 nM. It also gave a TGI [38] greater than 100000 nM, a GI50 [39] of 1520 nM and a TGI [39] of 7810 nM. It also gave a GI50 [40] of 777 nM, a TGI [40] greater than 100000 nM and a GI50 [41] of 2910 nM. The TGI [41] was greater than 100000 nM, the GI50 [42] was 2540 nM and the TGI [42] was greater than 100000 nM. The GI50 [43] was 1110 nM, the TGI [43] was greater than 100000 nM and the GI50 [44] was 3190 nM. For the same compound, the TGI [44] was greater than 100000 nM.
